Experimental data as given in patent publication US4966893A, “Method for treatment of senile dementia” (priority 1989, dated 1990).

Key:
[1] = tested on: synaptosomes from whole rat brain; assay: release of 3H-ACh from synaptosomes under low [K] and high [K] conditions; format: cell-based; settings: FIG. 1
Protocol: Pinched off nerve endings (synaptosomes) from whole rat brain were first incubated in the presence of the precursor ^3 H-choline, which is converted intracellularly to ^3 H-ACh. The release of ACh from synaptosomes was quantitated under low [K] and high [K] conditions intended to simulate physiological stimulation.

[2] = tested on: synaptosomes; assay: electrically stimulated 3H-acetylcholine release from perfused synaptosomes; format: cell-based, rat; settings: for electrically stimulated release of ACh (S2/S1 ratio): 10^-6 M drug during the last 25 minutes of perfusion, electrical field stimulation, FIGS. 2 and 3
Protocol: Using a different protocol, synaptosomes, which had been previously incubated with ^3 H-choline, as in the first series of experiments, were continually perfused with HEPES-buffered Krebs solution. The release of ACh was effected by subjecting the synaptosomes to electrical field stimulation, which more closely mimics physiological stimulation. […] The results obtained by calculating the ratio of the amounts of ACh released during the two periods of electrical stimulation (the areas under the curves, S2/S1) indicate that both Rb1 and Rg1 increase the electrically stimulated release. In addition, Rg1 stimulates the resting release of ^3 H-ACh, as indicated, by the increase in the resting efflux of ^3 H-ACh when the drug was first added. While the net amount of ^3 H-ACh released in each run can vary, depending on the amount of protein on the filter and aging of the synaptosomes, the S2/S1 ratio remains quite constant from run to run using a given chamber. Therefore, in each experiment the same chamber was used for both control and test-drug runs.

[3] = tested on: rat brain synaptosomes; assay: resting and voltage dependent uptake of 45Ca into synaptosomes; format: cell-based; settings: compared with depolarized (52.5 K) uptake, FIG. 6
Source text: If this compound were acting as a non-specific depolarizing agent, one would predict the resting uptake of ^45 Ca would be stimulated several fold, to the same level as the depolarized (52.5 K) uptake.

For `CC(C)=CCC[C@](C)(O[C@@H]1O[C@H](CO[C@@H]2O[C@H](CO)[C@@H](O)[C@H](O)[C@H]2O)[C@@H](O)[C@H](O)[C@H]1O)[C@H]1CC[C@]2(C)[C@@H]1[C@H](O)C[C@@H]1[C@@]3(C)CC[C@H](O[C@@H]4O[C@H](CO)[C@@H](O)[C@H](O)[C@H]4O[C@@H]4O[C@H](CO)[C@@H](O)[C@H](O)[C@H]4O)C(C)(C)[C@@H]3CC[C@]12C` [Rb1, ginsenoside Rb1], the “release of 3H-ACh” value [1] was “increased”, the “electrically stimulated release of ACh (S2/S1 ratio)” value [2] was “increase” and the “resting uptake of 45Ca” value [3] was “only a minimal increase”.

In the case of `CC(C)=CCC[C@](C)(O[C@@H]1O[C@H](CO)[C@@H](O)[C@H](O)[C@H]1O)[C@H]1CC[C@]2(C)[C@@H]1[C@H](O)C[C@@H]1[C@@]3(C)CC[C@H](O)C(C)(C)[C@@H]3[C@@H](O[C@@H]3O[C@H](CO)[C@@H](O)[C@H](O)[C@H]3O)C[C@]12C` [Rg1, ginsenoside Rg1], the “electrically stimulated release of ACh (S2/S1 ratio)” value [2] is reported as “increase” and the “resting release (resting efflux) of 3H-ACh” value ([2]; 10^-6 M drug, when the drug was first added) is reported as “stimulates”.
